What all share (format): ADME, subcellular
The target of series [1] is T1, Aldehyde oxidase (Homo sapiens, UniProt Q06278).
T1 sequence (Q06278 whole entry): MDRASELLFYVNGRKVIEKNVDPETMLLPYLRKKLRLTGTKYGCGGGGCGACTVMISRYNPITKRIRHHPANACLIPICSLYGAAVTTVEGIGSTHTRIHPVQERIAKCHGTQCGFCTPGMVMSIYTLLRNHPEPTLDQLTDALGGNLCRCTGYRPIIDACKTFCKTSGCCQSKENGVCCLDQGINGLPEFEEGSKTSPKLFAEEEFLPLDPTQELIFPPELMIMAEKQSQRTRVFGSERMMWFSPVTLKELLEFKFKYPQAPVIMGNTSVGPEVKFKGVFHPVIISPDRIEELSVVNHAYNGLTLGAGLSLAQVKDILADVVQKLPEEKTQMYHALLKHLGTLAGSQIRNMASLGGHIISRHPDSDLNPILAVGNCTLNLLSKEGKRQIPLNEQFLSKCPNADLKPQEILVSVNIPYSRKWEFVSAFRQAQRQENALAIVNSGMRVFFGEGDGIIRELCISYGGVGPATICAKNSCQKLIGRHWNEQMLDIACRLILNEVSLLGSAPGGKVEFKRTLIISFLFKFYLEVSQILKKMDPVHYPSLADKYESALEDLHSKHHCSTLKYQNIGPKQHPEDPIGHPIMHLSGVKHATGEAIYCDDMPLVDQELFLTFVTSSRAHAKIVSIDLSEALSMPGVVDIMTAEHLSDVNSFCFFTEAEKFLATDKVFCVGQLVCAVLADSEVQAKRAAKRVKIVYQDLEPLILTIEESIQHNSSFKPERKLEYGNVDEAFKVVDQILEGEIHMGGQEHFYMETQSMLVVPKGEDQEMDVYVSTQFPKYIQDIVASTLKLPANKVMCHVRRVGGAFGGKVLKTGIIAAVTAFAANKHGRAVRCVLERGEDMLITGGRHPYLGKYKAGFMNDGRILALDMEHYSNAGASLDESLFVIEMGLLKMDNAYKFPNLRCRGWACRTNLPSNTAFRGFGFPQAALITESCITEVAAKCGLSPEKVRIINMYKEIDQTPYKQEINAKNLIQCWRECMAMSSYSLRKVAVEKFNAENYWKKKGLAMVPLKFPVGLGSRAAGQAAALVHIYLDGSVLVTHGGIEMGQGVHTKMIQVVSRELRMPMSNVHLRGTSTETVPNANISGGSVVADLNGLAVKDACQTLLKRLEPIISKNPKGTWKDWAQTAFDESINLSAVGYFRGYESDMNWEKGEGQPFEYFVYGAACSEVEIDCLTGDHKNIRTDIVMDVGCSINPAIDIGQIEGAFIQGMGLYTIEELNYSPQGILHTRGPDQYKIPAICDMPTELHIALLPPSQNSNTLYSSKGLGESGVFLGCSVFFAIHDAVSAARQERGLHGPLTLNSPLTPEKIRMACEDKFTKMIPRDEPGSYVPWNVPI
Briefly: Drug level in human liver S9 fraction assessed as aldehyde oxidase-mediated compound formation treated with 10 uM 5-cyclopropyl-1-(quinolin-5-yl)-1H-pyrazole-4-carboxylic acid by spectrometry.

For series [2], the target named is T1, Aldehyde oxidase. As to the kind of experiment: Drug level in human liver S9 fraction assessed as aldehyde oxidase-mediated compound formation treated with 10 uM N-carbamimidoyl-5-propyl-1-(quinolin-5-yl)-1H-pyrazole-4-carboxamide by spectrometry.
The target in series [3] is T1, Aldehyde oxidase. Briefly: Drug level in human liver S9 fraction assessed as aldehyde oxidase-mediated compound formation treated with 10 uM N-carbamimidoyl-5-isopropyl-1-(quinolin-5-yl)-1H-pyrazole-4-carboxamide by spectrometry.
Series [4] concerns the target T1, Aldehyde oxidase. As to the kind of experiment: Half life in human liver S9 fraction assessed as aldehyde oxidase-mediated 2-oxo-metabolite formation at 1 uM by spectrometry. To be noted: s9, 1 µM.
In series [5] the target is T1, Aldehyde oxidase. Briefly: Drug metabolism in human liver S9 fraction assessed as aldehyde oxidase-mediated 2-oxo-metabolite formation at 10 uM by spectrometry. To be noted: s9, 10 µM.
In series [6] the target is T1, Aldehyde oxidase. Briefly: Drug level in human liver S9 fraction assessed as aldehyde oxidase-mediated compound formation treated with 10 uM N-carbamimidoyl-3-cyclopropyl-1-(quinolin-5-yl)-1H-pyrazole-4-carboxamideby spectrometry.
Series [7] addresses T1, Aldehyde oxidase. As to the kind of experiment: Drug level in human liver S9 fraction assessed as aldehyde oxidase-mediated compound formation treated with 10 uM zoniporide by spectrometry.
Series [8] has as its target T1, Aldehyde oxidase. Briefly: Drug level in human liver S9 fraction assessed as aldehyde oxidase-mediated compound formation treated with 10 uM 5-butyl-N-carbamimidoyl-1-(quinolin-5-yl)-1H-pyrazole-4-carboxamide by spectrometry.
Series [9] has as its target T1, Aldehyde oxidase. Briefly: Drug level in human liver S9 fraction assessed as aldehyde oxidase-mediated compound formation treated with 10 uM N-carbamimidoyl-5-(methoxymethyl)-1-(quinolin-5-yl)-1H-pyrazole-4-carboxamide by spectrometry.
The target of series [10] is T1, Aldehyde oxidase. As to the kind of experiment: Drug level in human liver S9 fraction assessed as aldehyde oxidase-mediated compound formation treated with 10 uM 5-cyclopropyl-N,N-diethyl-1-(quinolin-5-yl)-1H-pyrazole-4-carboxamide by spectrometry.
Series [11] has as its target T1, Aldehyde oxidase. As to the kind of experiment: Drug level in human liver S9 fraction assessed as aldehyde oxidase-mediated compound formation treated with 10 uM 5-cyclopropyl-1-(quinolin-5-yl)-1H-pyrazole-4-carboxamide by spectrometry.
In series [12] the target is T1, Aldehyde oxidase. As to the kind of experiment: Drug level in human liver S9 fraction assessed as aldehyde oxidase-mediated compound formation treated with 10 uM N-carbamimidoyl-5-methyl-1-(quinolin-5-yl)-1H-pyrazole-4-carboxamide by spectrometry.
Substrate in series [13]: N=C(N)NC(=O)c1cn(-c2cccc3ncccc23)nc1C1CC1
As to the kind of experiment: (§1) Drug metabolism in human liver S9 fraction assessed as aldehyde oxidase-mediated 2-oxo-metabolite formation by spectrometry.

Substrate in series [14]: N=C(N)NC(=O)c1cnn(-c2ccnc3ccccc23)c1C1CC1
Described as §1.

Substrate in series [15]: CCN(CC)C(=O)c1cnn(-c2cccc3ncccc23)c1C1CC1
Described as §1.

Substrate in series [16]: CC(C)c1c(C(=O)NC(=N)N)cnn1-c1cccc2ncccc12
The description is as §1.

Substrate in series [17]: COCc1c(C(=O)NC(=N)N)cnn1-c1cccc2ncccc12
The description is as §1.

Substrate in series [18]: N=C(N)NC(=O)c1cnn(-c2ccc3ncccc3c2)c1C1CC1
The description is as §1.

A value given as a limit tells only on which side of the number the result lay.

For `O=C(O)c1cnn(-c2cccc3[nH]c(=O)ccc23)c1C1CC1`, at Aldehyde oxidase [1], the Drug metabolism result is reported as “metabolite_detected”. `CCCc1c(C(=O)NC(=N)N)cnn1-c1cccc2[nH]c(=O)ccc12`: at Aldehyde oxidase [2], the Drug metabolism result is on record as “metabolite_detected”.

Turning to `CC(C)c1c(C(=O)NC(=N)N)cnn1-c1cccc2[nH]c(=O)ccc12`, the Drug metabolism entry at Aldehyde oxidase [3] was “metabolite_detected”. Consider `N=C(N)NC(=O)c1cnn(-c2ccc3ncccc3c2)c1C1CC1`, for which the t1/2 at Aldehyde oxidase [4] is recorded as below 5 min. Moreover, the Drug metabolism result at Aldehyde oxidase [5] is listed as “metabolite_detected”. The matching figures for `NC(=O)c1cnn(-c2cccc3ncccc23)c1C1CC1`: 110 min and “metabolite_detected”.

Take `N=C(N)NC(=O)c1cn(-c2cccc3[nH]c(=O)ccc23)nc1C1CC1`: the Drug metabolism result at Aldehyde oxidase [6] is reported as “metabolite_detected”. Regarding `COCc1c(C(=O)NC(=N)N)cnn1-c1cccc2ncccc12`, at Aldehyde oxidase [4], the t1/2 is 120 min. For the same molecule, the Drug metabolism result at Aldehyde oxidase [5] was “metabolite_detected”.

As for `Cc1c(C(=O)N=C(N)N)cnn1-c1cccc2ncccc12`, on Aldehyde oxidase [4], the t1/2 came out at 33 min. Besides, the Drug metabolism result at Aldehyde oxidase [5] was “metabolite_detected”. Take `N=C(N)NC(=O)c1cnn(-c2cccc3[nH]c(=O)ccc23)c1C1CC1`: the Drug metabolism result on Aldehyde oxidase [7] was “metabolite_detected”.

For `CCCCc1c(C(=O)NC(=N)N)cnn1-c1cccc2[nH]c(=O)ccc12`, the Drug metabolism result on Aldehyde oxidase [8] is on record as “metabolite_detected”. As to `COc1ccc2ncccc2c1-n1ncc(C(=O)NC(=N)N)c1C1CC1`, the t1/2 on Aldehyde oxidase [4] was 120 min. Also, the Drug metabolism entry on Aldehyde oxidase [5] is “metabolite_detected”. The matching figures for `N=C(N)NC(=O)c1cnn(-c2cccc3[nH]cnc23)c1C1CC1`: 120 min and “metabolite_detected”. The matching figures for `N=C(N)NC(=O)c1cn(-c2cccc3ncccc23)nc1C1CC1`: 3.1 min and “metabolite_detected”. The matching figures for `CCCCc1c(C(=O)NC(=N)N)cnn1-c1cccc2ncccc12`: 48 min and “metabolite_detected”. Turning to `N=C(N)NC(=O)c1cnn(-c2cccc3[nH]ccc23)c1C1CC1`, the Drug metabolism result at Aldehyde oxidase [5] is on record as “metabolite_not_detected”. Regarding `Cc1ccc2ncccc2c1-n1ncc(C(=O)NC(=N)N)c1C1CC1`, on Aldehyde oxidase [4], the t1/2 came out at 120 min. The Drug metabolism result at Aldehyde oxidase [5] was “metabolite_detected”. For the molecule `CC(C)c1c(C(=O)NC(=N)N)cnn1-c1cccc2ncccc12`, the t1/2 at Aldehyde oxidase [4] is 15 min. For the same molecule, on Aldehyde oxidase [5], the Drug metabolism entry is reported as “metabolite_detected”. The matching figures for `O=C(O)c1cnn(-c2cccc3ncccc23)c1C1CC1`: 120 min and “metabolite_detected”. Regarding `CCCc1c(C(=O)NC(=N)N)cnn1-c1cccc2ncccc12`, the t1/2 at Aldehyde oxidase [4] worked out at 41 min. In addition, the Drug metabolism entry at Aldehyde oxidase [5] is reported as “metabolite_detected”. On to `COCc1c(C(=O)NC(=N)N)cnn1-c1cccc2[nH]c(=O)ccc12`, for which the Drug metabolism result on Aldehyde oxidase [9] is “metabolite_detected”. Consider `N=C(N)NC(=O)c1cnn(-c2ccnc3ccccc23)c1C1CC1`, for which, on Aldehyde oxidase [4], the t1/2 came out at 14 min. The Drug metabolism result on Aldehyde oxidase [5] is reported as “metabolite_detected”. With `N=C(N)NC(=O)c1cnn(-c2c(O)ccc3ncccc23)c1C1CC1`, the t1/2 on Aldehyde oxidase [4] is on record as 120 min. The Drug metabolism entry on Aldehyde oxidase [5] was “metabolite_detected”. As for `CCN(CC)C(=O)c1cnn(-c2cccc3[nH]c(=O)ccc23)c1C1CC1`, the Drug metabolism entry at Aldehyde oxidase [10] is reported as “metabolite_detected”. Regarding `N=C(N)NC(=O)c1cnn(-c2cccc3ncccc23)c1C1CC1` [ZONIPORIDE], at Aldehyde oxidase [4], the t1/2 is given as 26 min. In addition, at Aldehyde oxidase [5], the Drug metabolism entry is listed as “metabolite_detected”. The matching figures for `CCN(CC)C(=O)c1cnn(-c2cccc3ncccc23)c1C1CC1`: 37 min and “metabolite_detected”. For the molecule `NC(=O)c1cnn(-c2cccc3[nH]c(=O)ccc23)c1C1CC1`, on Aldehyde oxidase [11], the Drug metabolism result is reported as “metabolite_detected”. Take `Cc1c(C(=O)NC(=N)N)cnn1-c1cccc2[nH]c(=O)ccc12`: the Drug metabolism entry on Aldehyde oxidase [12] is given as “metabolite_detected”. As to `N=C(N)NC(=O)c1cnn(-c2cccc3[nH]ncc23)c1C1CC1`, the Drug metabolism entry on Aldehyde oxidase [5] was “metabolite_not_detected”.

B1: Aldehyde oxidase (Homo sapiens) (protein)
chain: T1 sequence (Q06278 whole entry)
As for B1, the Michaelis constant (Km) in [13] turned out to be 0.4 µM; in [14] it was 1.8 µM; in series [15] it was 16 µM; in series [16], 2.2 µM; in series [17] it was 9 µM; in series [18] it was 1.2 µM.

Source of the values: ChEMBL document CHEMBL3525904, “Effect of structural variation on aldehyde oxidase-catalyzed oxidation of zoniporide” (Drug Metab Dispos, 2012).
